Assay results as given in PMC2000878, “Module structure of interphotoreceptor retinoid-binding protein (IRBP) may provide bases for its complex role in the visual cycle – structure/function study of Xenopus IRBP” (BMC Biochemistry, 2007).
Where two headings read alike, the source gives them in different places.

Legend:
Type in all cases: binding
full-length Xenopus IRBP = target: T1, full-length Xenopus IRBP (Xenopus laevis, UniProt Q7SZI7); test: Fluorometric titration (ligand fluorescence enhancement, protein quenching, energy transfer)
T1 construct: We expressed the full-length IRBP as well as its individual modules as thioredoxin-fusion proteins using pTrxFus and pThioHis vectors; made in house; host or cells: E. coli Top10 (pThioHis)
T1 sequence (Q7SZI7 23-1219): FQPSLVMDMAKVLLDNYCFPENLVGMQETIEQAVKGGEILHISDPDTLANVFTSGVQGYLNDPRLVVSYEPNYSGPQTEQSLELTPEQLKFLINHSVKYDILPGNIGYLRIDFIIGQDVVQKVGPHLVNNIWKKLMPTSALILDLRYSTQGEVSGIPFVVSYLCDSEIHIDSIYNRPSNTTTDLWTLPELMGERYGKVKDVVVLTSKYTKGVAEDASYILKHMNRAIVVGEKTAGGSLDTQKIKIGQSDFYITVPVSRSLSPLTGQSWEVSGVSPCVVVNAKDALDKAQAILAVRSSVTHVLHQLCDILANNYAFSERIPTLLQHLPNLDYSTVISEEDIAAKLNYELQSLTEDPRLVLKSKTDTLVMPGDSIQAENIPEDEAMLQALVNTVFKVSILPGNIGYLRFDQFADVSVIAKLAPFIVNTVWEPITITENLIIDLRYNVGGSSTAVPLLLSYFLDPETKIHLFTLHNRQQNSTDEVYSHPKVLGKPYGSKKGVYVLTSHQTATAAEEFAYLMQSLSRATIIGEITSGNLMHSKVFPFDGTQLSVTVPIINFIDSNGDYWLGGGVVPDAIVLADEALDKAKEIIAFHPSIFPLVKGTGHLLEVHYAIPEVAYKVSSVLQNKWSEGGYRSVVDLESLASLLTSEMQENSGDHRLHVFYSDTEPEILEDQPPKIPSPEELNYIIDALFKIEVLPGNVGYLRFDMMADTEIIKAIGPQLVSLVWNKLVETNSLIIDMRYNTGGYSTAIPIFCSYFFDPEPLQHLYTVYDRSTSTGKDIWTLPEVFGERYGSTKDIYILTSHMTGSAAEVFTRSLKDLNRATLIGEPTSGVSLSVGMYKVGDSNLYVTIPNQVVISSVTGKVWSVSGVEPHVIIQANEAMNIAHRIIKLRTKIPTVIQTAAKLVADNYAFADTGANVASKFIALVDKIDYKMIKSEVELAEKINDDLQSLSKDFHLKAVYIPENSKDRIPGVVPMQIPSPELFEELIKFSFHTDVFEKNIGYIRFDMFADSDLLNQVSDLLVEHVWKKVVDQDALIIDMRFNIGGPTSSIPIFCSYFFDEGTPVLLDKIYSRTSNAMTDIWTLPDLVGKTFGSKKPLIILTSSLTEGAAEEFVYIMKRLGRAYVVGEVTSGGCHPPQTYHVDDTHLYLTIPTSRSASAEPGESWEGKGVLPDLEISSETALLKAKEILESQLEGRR
From the text: The binding parameters of retinoid-binding proteins including IRBP may be determined by fluorescence spectroscopy. The method utilizes changes in quantum yield occurring during ligand binding. Such changes are represented by enhancement of ligand fluorescence, quenching of intrinsic protein fluorescence, and transfer of energy from protein to bound ligand. Fluorescence enhancement occurs if the quantum yield of the ligand's fluorescence is higher in the hydrophobic environment of the ligand-binding domain compared to that outside of the domain.
[…] We previously derived an equation that is generally useful for describing such quantum yield changes that are consequent upon ligand binding. This equation has been previously applied to the analysis of binding by monitoring the enhancement of retinol fluorescence. In this case, […], the fluorescence enhancement (Fenh) depends on the total retinol concentration (Rt), the dissociation constant (Kd ^all-trans), the number of retinol-binding sites per protein molecule (N) and the total protein concentration (Pt).
(§1) Assuming that there is a single type of noninteracting site on the protein, (Fenh) is expected to be linearly related to the concentration of bound retinol molecules. Fenh is given by the relation
(§2) Fenh=C1+C2[Rtall−trans−(Rtall−trans+NPt+Kdall−trans)^2−4NPtRtall−trans] MathType@MTEF@5@5@+=feaafiart1ev1aaatCvAUfKttLearuWrP9MDH5MBPbIqV92AaeXatLxBI9gBaebbnrfifHhDYfgasaacH8akY=wiFfYdH8Gipec8Eeeu0xXdbba9frFj0=OqFfea0dXdd9vqai=hGuQ8kuc9pgc9s8qqaq=dirpe0xb9q8qiLsFr0=vr0=vr0dc8meaabaqaciaacaGaaeqabaqabeGadaaakeaacqWGgbGrdaWgaaWcbaGaemyzauMaemOBa4MaemiAaGgabeaakiabg2da9iabdoeadnaaBaaaleaacqaIXaqmaeqaaOGaey4kaSIaem4qam0aaSbaaSqaaiabikdaYaqabaGcdaWadaqaaiabdkfasnaaDaaaleaacqWG0baDaeaacqWGHbqycqWGSbaBcqWGSbaBcqGHsislcqWG0baDcqWGYbGCcqWGHbqycqWGUbGBcqWGZbWCaaGccqGHsisldaGcaaqaamaabmaabaGaemOuai1aa0baaSqaaiabdsha0bqaaiabdggaHjabdYgaSjabdYgaSjabgkHiTiabdsha0jabdkhaYjabdggaHjabd6gaUjabdohaZbaakiabgUcaRiabd6eaojabdcfaqnaaBaaaleaacqWG0baDaeqaaOGaey4kaSIaem4saS0aa0baaSqaaiabdsgaKbqaaiabdggaHjabdYgaSjabdYgaSjabgkHiTiabdsha0jabdkhaYjabdggaHjabd6gaUjabdohaZbaaaOGaayjkaiaawMcaamaaCaaaleqabaGaeGOmaidaaOGaeyOeI0IaeGinaqJaemOta4Kaemiuaa1aaSbaaSqaaiabdsha0bqabaGccqWGsbGudaqhaaWcbaGaemiDaqhabaGaemyyaeMaemiBaWMaemiBaWMaeyOeI0IaemiDaqNaemOCaiNaemyyaeMaemOBa4Maem4CamhaaaqabaaakiaawUfacaGLDbaaaaa@8490@
The equation was fit to the data by nonlinear least-squares analysis. […] For the quenching studies the inner filter effect was accounted for by graphical correction as previously described. Fluorescence measurements were made using an SLM 8000TM C photon counting spectrofluorometer corrected for wavelength dependence of source energy and detector response.

Xenopus IRBP Module 4 = target: T2, Xenopus IRBP Module 4 (Xenopus laevis, UniProt Q7SZI7); test: Fluorometric titration (enhancement, quenching)
T2 construct: cDNAs corresponding to the full-length IRBP, module 1, and module 2 were expressed in pThioHis; modules 3 and 4 were expressed in pTrxFus; made in house; host or cells: E. coli GI724 / GI698 (pTrxFus)
T2 sequence (Q7SZI7 923-1219): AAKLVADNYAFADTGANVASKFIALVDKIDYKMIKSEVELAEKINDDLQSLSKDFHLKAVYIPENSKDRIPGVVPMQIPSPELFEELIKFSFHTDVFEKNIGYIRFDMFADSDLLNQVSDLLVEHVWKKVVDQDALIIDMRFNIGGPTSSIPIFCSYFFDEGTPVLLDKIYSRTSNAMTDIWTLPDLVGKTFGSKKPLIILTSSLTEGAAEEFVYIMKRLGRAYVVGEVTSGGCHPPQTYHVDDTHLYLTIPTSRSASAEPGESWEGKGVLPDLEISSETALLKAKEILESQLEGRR
From the text: (§3) Enhancement of retinol fluorescence and quenching of the intrinsic protein fluorescence were used to monitor binding of all-trans retinol to the recombinant IRBPs. We previously derived an equation that is generally useful for describing such quantum yield changes that are consequent upon ligand binding. This equation has been previously applied to the analysis of binding by monitoring the enhancement of retinol fluorescence. In this case, where excitation is at 330 nm and emission is monitored at 480, the fluorescence enhancement (Fenh) depends on the total retinol concentration (Rt), the dissociation constant (Kd ^all-trans), the number of retinol-binding sites per protein molecule (N) and the total protein concentration (Pt).
as §1, §2
(§4) The equation was fit to the data by nonlinear least-squares analysis. To follow the quenching of the protein's intrinsic fluorescence the excitation and emission wavelengths were set to 280 nm and 340 nm, respectively, while the protein was titrated with all-trans retinol. For the quenching studies the inner filter effect was accounted for by graphical correction as previously described. Fluorescence measurements were made using an SLM 8000TM C photon counting spectrofluorometer corrected for wavelength dependence of source energy and detector response.

Xenopus IRBP Module 3 = target: T3, Xenopus IRBP Module 3 (Xenopus laevis, UniProt Q7SZI7); test: Fluorometric titration (enhancement, quenching)
T3 construct: cDNAs corresponding to the full-length IRBP, module 1, and module 2 were expressed in pThioHis; modules 3 and 4 were expressed in pTrxFus; made in house; host or cells: E. coli GI724 / GI698 (pTrxFus)
T3 sequence (Q7SZI7 616-922): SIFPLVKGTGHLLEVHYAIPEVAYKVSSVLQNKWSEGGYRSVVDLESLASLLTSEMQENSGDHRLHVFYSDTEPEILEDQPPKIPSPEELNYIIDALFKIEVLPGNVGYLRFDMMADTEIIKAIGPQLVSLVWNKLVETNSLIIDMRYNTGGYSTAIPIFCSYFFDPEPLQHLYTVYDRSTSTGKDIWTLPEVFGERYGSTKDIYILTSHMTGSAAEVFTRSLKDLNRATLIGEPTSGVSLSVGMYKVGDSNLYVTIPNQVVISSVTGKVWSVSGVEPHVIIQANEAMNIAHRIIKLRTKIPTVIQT
From the text: as §3, §1, §2, §4

[1] = target: X(1,2)IRBP (Xen IRBP modules 1&2) (Xenopus laevis, UniProt Q7SZI7); test: Fluorometric titration, retinol fluorescence enhancement, double module; settings: ex 330 nm, em 480 nm, protein 0.67 μM
X(1,2)IRBP (Xen IRBP modules 1&2), sequence (Q7SZI7 23-617): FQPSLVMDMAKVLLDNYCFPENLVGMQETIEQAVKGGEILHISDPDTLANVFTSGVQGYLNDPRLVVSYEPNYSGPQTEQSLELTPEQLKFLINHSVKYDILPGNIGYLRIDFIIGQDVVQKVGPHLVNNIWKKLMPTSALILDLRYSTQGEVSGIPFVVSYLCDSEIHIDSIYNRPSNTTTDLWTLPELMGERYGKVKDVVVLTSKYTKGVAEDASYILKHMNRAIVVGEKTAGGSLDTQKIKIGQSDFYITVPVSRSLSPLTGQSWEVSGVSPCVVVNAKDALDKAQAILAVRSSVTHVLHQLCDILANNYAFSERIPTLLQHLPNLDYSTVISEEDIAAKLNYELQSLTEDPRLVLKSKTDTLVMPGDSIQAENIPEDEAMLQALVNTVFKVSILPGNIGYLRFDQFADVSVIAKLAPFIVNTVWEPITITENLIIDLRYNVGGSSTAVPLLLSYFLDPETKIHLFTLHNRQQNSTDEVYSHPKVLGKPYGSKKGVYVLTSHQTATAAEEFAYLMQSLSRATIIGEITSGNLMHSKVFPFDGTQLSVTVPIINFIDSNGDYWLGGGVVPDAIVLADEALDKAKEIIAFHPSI
From the text: (§5) Why do the number of sites from individual modules add up to more than that detected in the full-length IRBP? Here we asked whether the number of sites within individual modules could at least predict the number in recombinant proteins consisting of two modules. We had originally anticipated that the sum of sites from individual modules would give the number in such "module pairs". However, this turned out to be not always true. We expressed and purified module combinations 1&2 and 3&4, termed X(1,2)IRBP and X(3,4)IRBP respectively. Binding of all-trans retinol to these module pairs was characterized by fluorometric titrations monitoring retinol-fluorescence enhancement (Figure 10). For X(1,2)IRBP, N = 2.45 ± 0.11 (2.40 sites were predicted from the sum of individual modules 1 plus 2). In contrast, N for X(3,4)IRBP was 1.43 ± 0.21 sites (predicted, 3.83 sites). […] That is, some sites may not be solvent exposed in the intact IRBP as they are within individual modules. […] Therefore it is plausible that some binding sites that are solvent exposed in the individual module are buried in the intact […]. To address this question, ongoing studies in our laboratories are aimed at determining the X-ray crystal structure of IRBPs composed of multiple modules.
(§6) Figure 10 Retinol binding to Xenopus IRBPs consisting of two contiguous modules. Binding of double modules IRBPs with all-trans retinol as followed during titrations by monitoring the increase in retinol fluorescence (excitation, 330 nm; emission, 480 nm). The concentration of the IRBP double module was: modules 1&2, 0.67 μM; modules 3&4, 0.57 μM.
as §3
(§7) Assuming that there is a single type of noninteracting site on the protein, (Fenh) is expected to be linearly related to the concentration of bound retinol molecules. […]
(§8) The equation was fit to the data by nonlinear least-squares analysis. To follow the quenching of the protein's intrinsic fluorescence the excitation and emission wavelengths were set to 280 nm and 340 nm, respectively, while the protein was titrated with all-trans retinol. […]

[2] = target: X(3,4)IRBP (Xen IRBP modules 3&4) (Xenopus laevis, UniProt Q7SZI7); test: as above; settings: ex 330 nm, em 480 nm, protein 0.57 μM
X(3,4)IRBP (Xen IRBP modules 3&4), sequence (Q7SZI7 618-1219): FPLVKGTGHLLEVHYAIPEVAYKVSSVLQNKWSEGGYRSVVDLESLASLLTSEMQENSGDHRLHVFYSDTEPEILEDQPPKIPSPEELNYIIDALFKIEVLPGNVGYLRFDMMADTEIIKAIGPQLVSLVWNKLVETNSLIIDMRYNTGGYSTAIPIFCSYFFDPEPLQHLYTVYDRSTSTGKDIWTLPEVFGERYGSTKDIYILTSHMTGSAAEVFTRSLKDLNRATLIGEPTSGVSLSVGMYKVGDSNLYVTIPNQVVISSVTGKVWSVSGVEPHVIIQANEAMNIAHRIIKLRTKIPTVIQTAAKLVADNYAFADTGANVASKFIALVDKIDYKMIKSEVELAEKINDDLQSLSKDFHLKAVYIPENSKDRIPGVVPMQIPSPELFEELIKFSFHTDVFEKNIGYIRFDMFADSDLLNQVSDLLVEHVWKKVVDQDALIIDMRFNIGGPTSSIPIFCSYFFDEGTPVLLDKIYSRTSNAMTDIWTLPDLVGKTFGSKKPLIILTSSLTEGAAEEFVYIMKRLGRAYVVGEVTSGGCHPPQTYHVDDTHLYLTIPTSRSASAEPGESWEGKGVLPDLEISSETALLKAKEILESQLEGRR
From the text: as §5, §6, §3, §7, §8

[3] = all-trans retinol fluorescence enhancement, ex 330 nm, em 480 nm
[4] = quenching by all-trans retinol, ex 280 nm, em 340 nm, read-out: Kd, Quenching

Row | Binding sites (N), Quenching (full-length Xenopus IRBP; quenching of protein fluorescence by 11-cis retinaldehyde, ex 280 nm, em 340 nm) | Kd (full-length Xenopus IRBP; quenching of protein fluorescence by 11-cis retinaldehyde, ex 280 nm, em 340 nm, read-out: Kd 11-cis, Quenching) | Binding sites (N), Enhancement (Xenopus IRBP Module 4; [3]) | Kd (Xenopus IRBP Module 4; all-trans retinol fluorescence enhancement, ex 330 nm, em 480 nm, absence of 11-cis retinaldehyde, read-out: Kd, Enhancement) | Kd (Xenopus IRBP Module 4; [4]) | Binding sites (N), Enhancement (Xenopus IRBP Module 3; [3]) | Kd (Xenopus IRBP Module 3; all-trans retinol fluorescence enhancement, ex 330 nm, em 480 nm, read-out: Kd, Enhancement) | Kd (Xenopus IRBP Module 3; [4]) | Binding sites (N) [1] | Kd [1] | Binding sites (N) [2] | Kd [2] | Binding sites (N), Enhancement (full-length Xenopus IRBP; all-trans retinol fluorescence enhancement, ex 330 nm, em 480 nm, IRBP 0.65 μM) | Kd (full-length Xenopus IRBP; all-trans retinol fluorescence enhancement, ex 330 nm, em 480 nm, IRBP 0.65 μM, read-out: Kd, Enhancement) | Binding sites (N), energy transfer (full-length Xenopus IRBP; all-trans retinol, energy transfer, ex 280 nm, em 480 nm) | Kd (full-length Xenopus IRBP; all-trans retinol, energy transfer, ex 280 nm, em 480 nm, read-out: Kd, energy transfer) | Binding sites (N), Quenching (full-length Xenopus IRBP; quenching of protein fluorescence by all-trans retinol, ex 280 nm, em 340 nm) | Kd (full-length Xenopus IRBP; quenching of protein fluorescence by all-trans retinol, ex 280 nm, em 340 nm, read-out: Kd, Quenching) | Kd (full-length Xenopus IRBP; summary statement of the abstract, read-out: Kd (summary)) | Compound
1 | 1.81 ± 0.15 | 280 ± 50 nM |  |  |  |  |  |  |  |  |  |  |  |  |  |  |  |  |  | CC1=C(/C=C/C(C)=C/C=C/C(C)=C/C=O)C(C)(C)CCC1 [11-cis retinal]
2 |  |  | 2.06 ± 0.53 | 1790 ± 540 nM | 640 ± 50 nM | 1.83 ± 0.42 | 1180 ± 410 nM | 310 ± 40 nM | 2.45 ± 0.11 | 49 ± 23 nM | 1.43 ± 0.21 | 190 ± 50 nM | 3.19 ± 0.10 | 300 ± 50 nM | 3.72 ± 0.20 | 290 ± 120 nM | 1.93 ± 0.41 | 660 ± 140 nM | 200 to 300 nM | CC1=C(/C=C/C(C)=C/C=C/C(C)=C/CO)C(C)(C)CCC1 [all-trans retinol]
